In ChEMBL document CHEMBL5131384, “Design, synthesis, and biological evaluation of indole-based hydroxamic acid derivatives as histone deacetylase inhibitors” (Eur J Med Chem, 2022):
Activity calls are given as the source filed them. The rule behind the calls is not given here.

What follows are compounds tested on HCT-116 (assay: Induction of apoptosis in human HCT-116 cells assessed as late apoptotic cells at 1 uM incubated for 48 hrs by Annexin V-FITC/propidium iodide staining-based flow cytometric analysis (reference value: 5.80 %)). Settings: not given.
Type: functional

Row | SMILES | Activity [%]
1 | O=C(CCCCCCC(=O)Nc1ccccc1)NO [VORINOSTAT] | 36.2

What follows are compounds tested on HCT-116 (assay: Induction of cell cycle arrest in human HCT-116 cells assessed as increase in accumulation of cells at G2/M phase at 1 uM incubated for 24 hrs by flow cytometry analysis). Settings: not given.
Type: functional, cell-based

Row | SMILES | Activity
2 | O=C(CCCCCCC(=O)Nc1ccccc1)NO [VORINOSTAT] | Active

These compounds were tested on HCT-116 (assay: Antiproliferative activity against human HCT-116 cells assessed as reduction in cell viability incubated for 72 hrs by WST-8 assay). Settings: HCT-116, 72 h.
Type: functional, cell-based

Row | IC50 [µM] | SMILES
3 | 3.59 | O=C(CCCCCCC(=O)Nc1ccccc1)NO [VORINOSTAT]

The compounds below were run on HCT-116 (assay: Induction of apoptosis in human HCT-116 cells assessed as early apoptotic cells at 1 uM incubated for 48 hrs by Annexin V-FITC/propidium iodide staining-based flow cytometric analysis (reference value: 1.73 %)). Settings: not given.
Type: functional

Row | SMILES | Activity [%]
4 | O=C(CCCCCCC(=O)Nc1ccccc1)NO [VORINOSTAT] | 3.2

The compounds below were run on HCT-116 (assay: Induction of cell cycle arrest in human HCT-116 cells assessed as decrease in accumulation of cells at S phase at 1 uM incubated for 24 hrs by flow cytometry analysis). Settings: not given.
Type: functional, cell-based

Row | SMILES | Activity
5 | O=C(CCCCCCC(=O)Nc1ccccc1)NO [VORINOSTAT] | Active
